One data set has as its target Carbonic anhydrase 9 (Homo sapiens, UniProt Q16790). Nature of the data set: Inhibition of human recombinant CA9 using 4-nitrophenylacetate as substrate preincubated for 15 mins by stopped-flow CO2 hydration assay.
Another data set concerns MCF7. The settings on record: Homo sapiens, MCF7, 48 h.
For the next data set, the system named is B16-F10. Description: cells. The settings on record: Mus musculus, B16-F10, 48 h.
Data set [1] is described as follows: Cytotoxicity against human macrophages assessed as microscopically detectable alteration of normal cell morphology after 48 hrs […]. The class given is cell-based. The settings on record: macrophage.
The subject of data set [2] is A549. Description: Induction of apoptosis in human A549 cells assessed as early apoptotic cells at 160 ug/ml after 48 hrs using propidium iodide staining by FACS assay. The class given is functional.
Data set [3] concerns A549. Description: Induction of apoptosis in human A549 cells assessed as late apoptotic cells at 160 ug/ml after 48 hrs using propidium iodide staining by FACS assay. The class given is functional.
The subject of data set [4] is A549. Nature of the data set: Induction of apoptosis in human A549 cells assessed as viable cells at 160 ug/ml after 48 hrs using propidium iodide staining by FACS assay. The settings on record: A549, 48 h, read-out: Activity. Format: functional.
The subject of data set [5] is A549. Nature of the data set: Induction of apoptosis in human A549 cells assessed as necrotic cells at 160 ug/ml after 48 hrs using propidium iodide staining by FACS assay. The class given is functional.
Data set [6] deals with A549. Description: Induction of apoptosis in human A549 cells assessed as early apoptotic cells at 40 ug/ml after 48 hrs using propidium iodide staining by FACS assay. The class given is functional.
Data set [7] has as its system A549. Nature of the data set: Induction of apoptosis in human A549 cells assessed as late apoptotic cells at 40 ug/ml after 48 hrs using propidium iodide staining by FACS assay. Format: functional. (In general: Flow cytometry measures light scatter and fluorescence of single cells or particles in a stream.)
In data set [8] the test system is A549. Nature of the data set: Induction of apoptosis in human A549 cells assessed as viable cells at 40 ug/ml after 48 hrs using propidium iodide staining by FACS assay. Format: functional. The settings on record: A549, 48 h, read-out: Activity.
For data set [9], the system named is A549. Description: Induction of apoptosis in human A549 cells assessed as necrotic cells at 40 ug/ml after 48 hrs using propidium iodide staining by FACS assay. The class given is functional.
Data set [10] deals with A549. Description: Induction of apoptosis in human A549 cells assessed as early apoptotic cells at 10 ug/ml after 48 hrs using propidium iodide staining by FACS assay. The class given is functional.
Data set [11] concerns A549. Description: Induction of apoptosis in human A549 cells assessed as late apoptotic cells at 10 ug/ml after 48 hrs using propidium iodide staining by FACS assay. Format: functional.
The subject of data set [12] is A549. Nature of the data set: Induction of apoptosis in human A549 cells assessed as viable cells at 10 ug/ml after 48 hrs using propidium iodide staining by FACS assay. The settings on record: A549, 48 h, read-out: Activity. Format: functional.
Data set [13] has as its system A549. Description: Induction of apoptosis in human A549 cells assessed as necrotic cells at 10 ug/ml after 48 hrs using propidium iodide staining by FACS assay. Format: functional.
Data set [14] relates to A549. Nature of the data set: Induction of apoptosis in human A549 cells assessed as early apoptotic cells at 2.5 ug/ml after 48 hrs using propidium iodide staining by FACS assay. The class given is functional.
The subject of data set [15] is A549. Nature of the data set: Induction of apoptosis in human A549 cells assessed as late apoptotic cells at 2.5 ug/ml after 48 hrs using propidium iodide staining by FACS assay. The class given is functional.
In data set [16] the test system is A549. Description: Induction of apoptosis in human A549 cells assessed as viable cells at 2.5 ug/ml after 48 hrs using propidium iodide staining by FACS assay. The class given is functional. The settings on record: A549, 48 h, read-out: Activity.
The subject of data set [17] is A549. Description: Induction of apoptosis in human A549 cells assessed as necrotic cells at 2.5 ug/ml after 48 hrs using propidium iodide staining by FACS assay. The class given is functional.

19 compounds from ChEMBL document CHEMBL2407072 (Eur J Med Chem, 2013) can be followed below.

Description for B16-F10: Cytotoxicity against mouse B16F10 cells after 48 hrs by CCK8 assay

For the compound `CC(C)(C)c1cc(C(C)(C)C)c2oc(=O)c(/C=N/c3ccc(S(=O)(=O)NC(=N)N)cc3)c(Cl)c2c1`, the IC50 (in general, the point on the concentration scale where inhibition reaches its midpoint) on Carbonic anhydrase 9 is 74 nM; in the data set on MCF7, 18 nM; in the data set with B16-F10, 250 nM.

`Cc1ccnc(NS(=O)(=O)c2ccc(/N=C/c3c(Cl)c4ccccc4oc3=O)cc2)n1`: the IC50 on Carbonic anhydrase 9 stood at 84 nM; in the data set on MCF7 it was 31 nM; in the data set on B16-F10 it was 230 nM.

As for `Cc1ccnc(NS(=O)(=O)c2ccc(/N=C/c3c(Cl)c4cc(C(C)(C)C)cc(C(C)(C)C)c4oc3=O)cc2)n1`, in data set [1], the MCC came to 0.36 µmol. In addition, the IC50 at Carbonic anhydrase 9 is 24 nM; with MCF7 it was 32 nM; in the data set with B16-F10, 190 nM.

`Cc1cc(C)nc(NS(=O)(=O)c2ccc(/N=C/c3c(Cl)c4ccccc4oc3=O)cc2)n1`: the Activity was 9.24% with A549 [2]; 9.62% with A549 [3]; 8.99% with A549 [5]; 6.54% in the data set with A549 [6]; 6.28% with A549 [7]; 2.04% in the data set with A549 [9]. The Activity in the data set with A549 [10] worked out at 5.09%; with A549 [11], 12.1%; in the data set on A549 [13] it was 1.58%; in the data set on A549 [14], 6.8%; in the data set with A549 [15] it was 19.6%; with A549 [17], 4.14%. In addition, the viability at 160 µg/mL in the data set with A549 [4] stood at 72.2%. The viability at 40 µg/mL with A549 [8] turned out to be 85.1%. Also, the viability at 10 µg/mL in the data set with A549 [12] worked out at 81.2%. In addition, in the data set on A549 [16], the viability at 2.5 µg/mL came to 69.4%. For the same compound, the figures for the IC50 on Carbonic anhydrase 9, with MCF7 and with B16-F10 were 124 nM, 20 nM and 170 nM, respectively.

With `COc1cccc2c1C(=O)c1c(O)c3c(c(O)c1C2=O)C[C@@](O)(C(=O)CO)C[C@@H]3O[C@H]1C[C@H](N)[C@H](O)[C@H](C)O1` [DOXORUBICIN], the half-inhibitory concentration (IC50) with B16-F10 came to 72 nM.

For the compound `Cc1cc(C)nc(NS(=O)(=O)c2ccc(/N=C/c3c(Cl)c4cc(C(C)(C)C)cc(C(C)(C)C)c4oc3=O)cc2)n1`, the MCC in data set [1] is 0.73 µmol. The IC50 on Carbonic anhydrase 9 amounted to 90 nM; in the data set on MCF7, 8.8 nM; in the data set on B16-F10, 220 nM.

Consider `Cc1ccc2oc(=O)c(/C=N/c3ccc(S(N)(=O)=O)cc3)c(Cl)c2c1`, for which, in data set [1], the MCC was 1.2 µmol. In addition, the figures for the concentration for half-maximal inhibition (IC50) on Carbonic anhydrase 9, in the data set with MCF7 and in the data set with B16-F10 were 85 nM, 270 nM and 360 nM, respectively.

On to `Cc1ccc2oc(=O)c(/C=N/c3ccc(S(=O)(=O)Nc4nc(C)cc(C)n4)cc3)c(Cl)c2c1`, for which the 50% inhibitory concentration (IC50) on Carbonic anhydrase 9 was 67 nM; in the data set on MCF7, 25 nM; in the data set with B16-F10 it was 300 nM.

For the compound `O=c1oc2ccccc2c(Cl)c1/C=N/c1ccc(S(=O)(=O)Nc2nccs2)cc1`, the IC50 stood at 138 nM on Carbonic anhydrase 9, 160 nM in the data set on MCF7 and 300 nM in the data set on B16-F10.

On to `N=C(N)NS(=O)(=O)c1ccc(/N=C/c2c(Cl)c3ccccc3oc2=O)cc1`, for which, in data set [1], the MCC was 0.62 µmol. Besides, the IC50 was 188 nM on Carbonic anhydrase 9, 58 nM with MCF7 and 180 nM in the data set on B16-F10.

In the case of `Cc1ccc2oc(=O)c(/C=N/c3ccc(S(=O)(=O)Nc4cc(C)on4)cc3)c(Cl)c2c1`, the IC50 worked out at 52 nM at Carbonic anhydrase 9, 16 nM in the data set on MCF7 and 250 nM in the data set with B16-F10.

Regarding `Cc1ccc2oc(=O)c(/C=N/c3ccc(S(=O)(=O)Nc4nccc(C)n4)cc3)c(Cl)c2c1`, the MCC in data set [1] was 0.56 µmol. In addition, the IC50 was 48 nM on Carbonic anhydrase 9, 61 nM in the data set on MCF7 and 270 nM with B16-F10.

Take `CC(C)(C)c1cc(C(C)(C)C)c2oc(=O)c(/C=N/c3ccc(S(=O)(=O)Nc4nccs4)cc3)c(Cl)c2c1`: the 50% inhibitory concentration (IC50) is 51 nM at Carbonic anhydrase 9, 12 nM in the data set with MCF7 and 160 nM in the data set with B16-F10.

For `Cc1cc(NS(=O)(=O)c2ccc(/N=C/c3c(Cl)c4ccccc4oc3=O)cc2)no1`, in data set [1], the MCC was 0.42 µmol. In addition, the IC50 came out at 141 nM at Carbonic anhydrase 9, 12 nM in the data set with MCF7 and 270 nM in the data set with B16-F10.

With `CC(C)(C)c1cc(C(C)(C)C)c2oc(=O)c(/C=N/c3ccc(S(N)(=O)=O)cc3)c(Cl)c2c1`, the MCC in [1] came out at 0.58 µmol. Further, the figures for the IC50 at Carbonic anhydrase 9, in the data set on MCF7 and with B16-F10 were 34 nM, 16 nM and 240 nM, respectively.

In the case of `Cc1ccc2oc(=O)c(/C=N/c3ccc(S(=O)(=O)NC(=N)N)cc3)c(Cl)c2c1`, the IC50 at Carbonic anhydrase 9 worked out at 50 nM; with MCF7 it was 67 nM; in the data set on B16-F10, 240 nM.

In the case of `Cc1ccc2oc(=O)c(/C=N/c3ccc(S(=O)(=O)Nc4nccs4)cc3)c(Cl)c2c1`, the IC50 was 87 nM at Carbonic anhydrase 9, 33 nM in the data set on MCF7 and 280 nM in the data set with B16-F10.

As for `NS(=O)(=O)c1ccc(/N=C/c2c(Cl)c3ccccc3oc2=O)cc1`, the MCC in data set [1] was 0.58 µmol. The IC50 on Carbonic anhydrase 9 was 91 nM; with MCF7 it was 120 nM; in the data set with B16-F10, 300 nM.

As to `Cc1cc(NS(=O)(=O)c2ccc(/N=C/c3c(Cl)c4cc(C(C)(C)C)cc(C(C)(C)C)c4oc3=O)cc2)no1`, the IC50 at Carbonic anhydrase 9 was 43 nM; in the data set with MCF7 it was 64 nM; in the data set on B16-F10, 240 nM.
